Here are results for 19 molecules from ChEMBL document CHEMBL2010766, “Bivalent Ligands for the Serotonin 5-HT3 Receptor” (ACS Med Chem Lett, 2011).

This test concerns the target T1, 5-hydroxytryptamine receptor 3A (Rattus norvegicus, UniProt P35563).
T1 sequence (P35563 whole entry): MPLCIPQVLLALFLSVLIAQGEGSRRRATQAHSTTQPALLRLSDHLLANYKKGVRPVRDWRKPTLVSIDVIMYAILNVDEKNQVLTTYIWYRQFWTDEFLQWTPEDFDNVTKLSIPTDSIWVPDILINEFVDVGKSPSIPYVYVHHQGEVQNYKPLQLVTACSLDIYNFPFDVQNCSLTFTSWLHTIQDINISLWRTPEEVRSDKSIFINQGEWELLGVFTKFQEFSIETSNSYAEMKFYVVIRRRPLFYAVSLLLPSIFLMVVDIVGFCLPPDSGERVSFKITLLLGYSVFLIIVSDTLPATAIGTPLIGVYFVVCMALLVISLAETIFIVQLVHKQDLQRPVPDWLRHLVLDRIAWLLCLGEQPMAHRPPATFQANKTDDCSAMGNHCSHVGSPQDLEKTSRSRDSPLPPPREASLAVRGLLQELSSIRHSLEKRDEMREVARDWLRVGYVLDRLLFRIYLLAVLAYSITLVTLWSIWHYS
The test is described as follows: Displacement of [3H]granisetron from 5HT3 receptor in Wistar rat cortical membranes by liquid scintillation spectrometry. The format is cell membranes, Membrane.

In general, Ki refers to a measure of affinity in units of concentration, obtained from inhibition or displacement. A high value points to lower affinity. In turn, `Cc1c(N2CCN(C)CC2)nc2ccccc2c1C(=O)NCCCCCCCNc1c2c(nc3ccccc13)CCCC2` came in with a Ki of 5.6 nM.

With `Cc1c(N2CCN(C)CC2)nc2ccccc2c1C(=O)NCCCCCCNC(=O)c1c(C)c(N2CCN(C)CC2)nc2ccccc12`, the Ki was found to be 28 nM. The result for `Cc1c(N2CCN(C)CC2)nc2ccccc2c1C(=O)NCCCCCCCNC(=O)c1c(C)c(N2CCN(C)CC2)nc2ccccc12` reads 2.7 nM; that for `Cc1c(N2CCN(C)CC2)nc2ccccc2c1C(=O)NCCCCCCCCNC(=O)c1c(C)c(N2CCN(C)CC2)nc2ccccc12`, 67 nM; that for `Cc1c(N2CCN(C)CC2)nc2ccccc2c1C(=O)NCCOCCOCCNC(=O)c1c(C)c(N2CCN(C)CC2)nc2ccccc12`, 7.7 nM.

With `Cc1c(N2CCN(C)CC2)nc2ccccc2c1C(=O)NCCOCCOCCOCCOCCOCCOCCOCCNC(=O)c1c(C)c(N2CCN(C)CC2)nc2ccccc12`, the affinity, expressed as Ki, was 27 nM. Regarding `Cc1c(N2CCN(C)CC2)nc2ccccc2c1C(=O)NCCOCCOCCOCCOCCOCCOCCOCCOCCOCCNC(=O)c1c(C)c(N2CCN(C)CC2)nc2ccccc12`, affinity was put at a Ki of 15 nM. The result for `Cc1c(N2CCN(C)CC2)nc2ccccc2c1C(=O)NCCCCCCNc1c2c(nc3ccccc13)CCCC2` reads 71 nM.

`Cc1c(N2CCN(C)CC2)nc2ccccc2c1C(=O)NCCCCCCCCNc1c2c(nc3ccccc13)CCCC2` yielded a Ki of 69 nM.

For the molecule `Cc1c(N2CCN(C)CC2)nc2ccccc2c1C(=O)NCCCCCCCNC(=O)NC[13C](=O)O`, the affinity, expressed as Ki, was 26 nM. For the molecule `Cc1c(N2CCN(C)CC2)nc2ccccc2c1C(=O)NCCOCCOCCNC(=O)NC[13C](=O)O`, the inhibitory constant (Ki) is 141 nM.

`Cc1c(N2CCN(C)CC2)nc2ccccc2c1C(=O)NCCOCCOCCOCCOCCOCCOCCOCCNC(=O)NC[13C](=O)O`: the Ki is 106 nM. In the case of `Cc1c(N2CCN(C)CC2)nc2ccccc2c1C(=O)NCCOCCOCCOCCOCCOCCOCCOCCOCCOCCNC(=O)NC[13C](=O)O`, the inhibitory constant (Ki) worked out at 154 nM.

With `Cc1c(N2CCN(C)CC2)nc2ccccc2c1C(=O)NCCCCCCNC(=O)OC(C)(C)C`, the inhibition constant Ki worked out at 178 nM. The result for `Cc1c(N2CCN(C)CC2)nc2ccccc2c1C(=O)NCCCCCCCNC(=O)OC(C)(C)C` reads 18 nM.

Take `Cc1c(N2CCN(C)CC2)nc2ccccc2c1C(=O)NCCCCCCCCNC(=O)OC(C)(C)C`: the inhibition constant (Ki) is 127 nM. Turning to `Cc1c(N2CCN(C)CC2)nc2ccccc2c1C(=O)NCCOCCOCCNC(=O)OC(C)(C)C`, affinity was put at a Ki of 132 nM. As for `Cc1c(N2CCN(C)CC2)nc2ccccc2c1C(=O)NCCOCCOCCOCCOCCOCCOCCOCCNC(=O)OC(C)(C)C`, the figure is 89 nM; as for `Cc1c(N2CCN(C)CC2)nc2ccccc2c1C(=O)NCCOCCOCCOCCOCCOCCOCCOCCOCCOCCNC(=O)OC(C)(C)C`, 71 nM.
